Reference: PubChem BioAssay (NCI)
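Step 1: Grow cells in 96-well plates. Step 2: Expose to compound for 48 hours at 5 concentrations. Step 3: Interpolate endpoints linearly; if unreached, use highest concentration. GI50 = concentration required for 50% inhibition of growth. TGI denotes the concentration required for complete inhibition of growth.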

Key:
Experiment in all cases: inhibition of tumour cell growth, NCI panel, 48 h
UO-31 renal = system: UO-31 renal
M14 melanoma = system: M14 melanoma
HL-60(TB) leukemia = system: HL-60(TB) leukemia
LOX IMVI melanoma = system: LOX IMVI melanoma
MALME-3M melanoma = system: MALME-3M melanoma
COLO 205 colon = system: COLO 205 colon
OVCAR-8 ovarian = system: OVCAR-8 ovarian
SK-OV-3 ovarian = system: SK-OV-3 ovarian
A498 renal = system: A498 renal
UACC-257 melanoma = system: UACC-257 melanoma

## CN(CCN(C)C(=O)CCn1ccc(=O)[nH]c1=O)C(=O)CCn1ccc(=O)[nH]c1=O
UO-31 renal
  TGI: > 100 µM
M14 melanoma
  TGI: > 100 µM
HL-60(TB) leukemia
  TGI: > 100 µM
LOX IMVI melanoma
  TGI: > 100 µM
MALME-3M melanoma
  TGI: > 100 µM
COLO 205 colon
  TGI: > 100 µM
OVCAR-8 ovarian
  TGI: > 100 µM

## CCOC(=O)N1C(=S)C(C(=O)OC)(C(=O)OC)N=C1C
UO-31 renal
  TGI: > 100 µM
M14 melanoma
  TGI: > 100 µM
HL-60(TB) leukemia
  TGI: > 100 µM
SK-OV-3 ovarian
  TGI: > 100 µM
A498 renal
  TGI: > 100 µM
LOX IMVI melanoma
  TGI: > 100 µM
COLO 205 colon
  TGI: > 100 µM
UACC-257 melanoma
  TGI: > 100 µM
OVCAR-8 ovarian
  TGI: > 100 µM

## CCCCCCCCCCCCCCCCNc1ccn(C2CC(OP(=O)(O)OCC3OC(n4cc(CC)c(=O)[nH]c4=O)CC3O)C(CO)O2)c(=O)n1 (stereo not drawn)
UO-31 renal
  TGI: 53 µM
M14 melanoma
  TGI: 33.2 µM
HL-60(TB) leukemia
  TGI: 20.2 µM
SK-OV-3 ovarian
  TGI: 82.1 µM
A498 renal
  TGI: > 100 µM
LOX IMVI melanoma
  TGI: > 100 µM
COLO 205 colon
  TGI: 92.4 µM
UACC-257 melanoma
  TGI: 97.4 µM
OVCAR-8 ovarian
  TGI: 43.6 µM

## CN(C)c1ccc(/C=C2\C[C@H]3[C@@H]4CCc5cc(O)ccc5[C@H]4CC[C@]3(C)C2=O)cc1
UO-31 renal
  TGI: > 100 µM
M14 melanoma
  TGI: > 100 µM
SK-OV-3 ovarian
  TGI: > 100 µM
A498 renal
  TGI: > 100 µM
LOX IMVI melanoma
  TGI: > 100 µM
MALME-3M melanoma
  TGI: > 100 µM
COLO 205 colon
  TGI: > 100 µM
UACC-257 melanoma
  TGI: > 100 µM
OVCAR-8 ovarian
  TGI: > 100 µM

## Cn1c(=O)c2sc3cc4c(cc3c2c2ccccc21)sc1c(=O)n(C)c2ccccc2c14
UO-31 renal
  TGI: > 100 µM
M14 melanoma
  TGI: > 100 µM
HL-60(TB) leukemia
  TGI: > 100 µM
SK-OV-3 ovarian
  TGI: > 100 µM
A498 renal
  TGI: > 100 µM
MALME-3M melanoma
  TGI: > 100 µM
COLO 205 colon
  TGI: > 100 µM
UACC-257 melanoma
  TGI: > 100 µM
OVCAR-8 ovarian
  TGI: > 100 µM

## CCC1CCC2c3c([nH]c4ccccc34)C3C(=O)N(c4ccc(OC)cc4)C(=O)C3C2C1 (stereo not drawn)
UO-31 renal
  TGI: > 100 µM
M14 melanoma
  TGI: > 100 µM
HL-60(TB) leukemia
  TGI: 75 µM
SK-OV-3 ovarian
  TGI: > 100 µM
COLO 205 colon
  TGI: > 100 µM
UACC-257 melanoma
  TGI: > 100 µM
OVCAR-8 ovarian
  TGI: > 100 µM

## CC(=O)Nc1ccc(/C=C(\NC(=O)c2ccccc2)C(=O)NNS(=O)(=O)c2ccc(C)cc2)cc1
UO-31 renal
  TGI: > 100 µM
M14 melanoma
  TGI: > 100 µM
HL-60(TB) leukemia
  TGI: > 100 µM
SK-OV-3 ovarian
  TGI: > 100 µM
LOX IMVI melanoma
  TGI: 38.2 µM
MALME-3M melanoma
  TGI: > 100 µM
COLO 205 colon
  TGI: 71.2 µM
UACC-257 melanoma
  TGI: > 100 µM
OVCAR-8 ovarian
  TGI: > 100 µM

## COc1ccc(N2C(=O)/C(=C/c3ccc(N(CCC#N)CCC#N)cc3)N=C2c2ccccc2)c(OC)c1
UO-31 renal
  TGI: > 100 µM
M14 melanoma
  TGI: > 100 µM
HL-60(TB) leukemia
  TGI: > 100 µM
SK-OV-3 ovarian
  TGI: > 100 µM
MALME-3M melanoma
  TGI: > 100 µM
COLO 205 colon
  TGI: > 100 µM
UACC-257 melanoma
  TGI: > 100 µM
OVCAR-8 ovarian
  TGI: > 100 µM

## O=c1c(-c2ccc(O)cc2)coc2cc(O)cc(O)c12
UO-31 renal
  TGI: > 100 µM
M14 melanoma
  TGI: > 100 µM
HL-60(TB) leukemia
  TGI: > 100 µM
MALME-3M melanoma
  TGI: > 100 µM
COLO 205 colon
  TGI: > 100 µM
OVCAR-8 ovarian
  TGI: > 100 µM

## CC1(C)Oc2ccc3c(=O)c4ccccc4oc3c2C1C(=O)O (stereo not drawn)
M14 melanoma
  TGI: > 100 µM
SK-OV-3 ovarian
  TGI: > 100 µM
A498 renal
  TGI: > 100 µM
MALME-3M melanoma
  TGI: > 100 µM
COLO 205 colon
  TGI: > 100 µM
UACC-257 melanoma
  TGI: > 100 µM
OVCAR-8 ovarian
  TGI: > 100 µM

## CC(=O)[C@H]1CCC2[C@@H]3CC=C4C(O)C(OS(=O)(=O)O)CC[C@]4(C)C3CC[C@@]21C (stereo partly drawn)
UO-31 renal
  TGI: > 100 µM
HL-60(TB) leukemia
  TGI: > 31.6 µM
SK-OV-3 ovarian
  TGI: > 100 µM
A498 renal
  TGI: > 100 µM
LOX IMVI melanoma
  TGI: > 100 µM
MALME-3M melanoma
  TGI: > 100 µM
COLO 205 colon
  TGI: > 100 µM
UACC-257 melanoma
  TGI: > 100 µM
OVCAR-8 ovarian
  TGI: > 100 µM

## CCOC(=O)c1c(-c2ccc(OC)c(O)c2)c(C#N)c(=S)n(C2OC(CO)C(O)C(O)C2O)c1-c1ccccc1 (stereo not drawn)
UO-31 renal
  TGI: > 100 µM
M14 melanoma
  TGI: > 100 µM
A498 renal
  TGI: > 100 µM
LOX IMVI melanoma
  TGI: > 100 µM
COLO 205 colon
  TGI: > 100 µM
UACC-257 melanoma
  TGI: > 100 µM

## O=C(Nc1nc(C23CC4CC(CC(C4)C2)C3)cs1)c1cc2cc([N+](=O)[O-])ccc2oc1=O
UO-31 renal
  TGI: > 100 µM
HL-60(TB) leukemia
  TGI: > 100 µM
A498 renal
  TGI: > 100 µM
LOX IMVI melanoma
  TGI: > 100 µM
MALME-3M melanoma
  TGI: > 100 µM
COLO 205 colon
  TGI: > 100 µM
UACC-257 melanoma
  TGI: > 100 µM
OVCAR-8 ovarian
  TGI: > 100 µM

## O=C(NCc1ccccc1)c1c(O)c2ccccc2[nH]c1=O
UO-31 renal
  TGI: > 100 µM
HL-60(TB) leukemia
  TGI: > 100 µM
A498 renal
  TGI: > 100 µM
LOX IMVI melanoma
  TGI: > 100 µM
MALME-3M melanoma
  TGI: > 100 µM
COLO 205 colon
  TGI: > 100 µM
UACC-257 melanoma
  TGI: > 100 µM
OVCAR-8 ovarian
  TGI: > 100 µM

## COC(=O)c1c(C#C[Si](C)(C)C)c(C#C[Si](C)(C)C)c(C#C[Si](C)(C)C)c(C#C[Si](C)(C)C)c1C(=O)OC
UO-31 renal
  TGI: > 100 µM
M14 melanoma
  TGI: > 100 µM
HL-60(TB) leukemia
  TGI: > 100 µM
SK-OV-3 ovarian
  TGI: > 100 µM
A498 renal
  TGI: > 100 µM
MALME-3M melanoma
  TGI: > 100 µM
COLO 205 colon
  TGI: > 100 µM
UACC-257 melanoma
  TGI: > 100 µM
OVCAR-8 ovarian
  TGI: > 100 µM

## Cc1ccc2cnc(N)c(C#Cc3cncc(C(=O)Nc4ccc(CN5CCN(C)CC5)c(C(F)(F)F)c4)c3)c2c1
UO-31 renal
  GI50: 0.589 µM
  TGI: 1.22 µM
HL-60(TB) leukemia
  GI50: 0.212 µM
  TGI: 0.908 µM
SK-OV-3 ovarian
  GI50: 0.869 µM
  TGI: 1.63 µM
A498 renal
  GI50: 0.291 µM
  TGI: 1.01 µM
LOX IMVI melanoma
  GI50: 0.289 µM
  TGI: 0.934 µM
MALME-3M melanoma
  GI50: 0.145 µM
  TGI: 0.62 µM
COLO 205 colon
  GI50: 0.134 µM
  TGI: 0.723 µM
UACC-257 melanoma
  GI50: 0.605 µM
  TGI: 1.38 µM
OVCAR-8 ovarian
  GI50: 0.579 µM
  TGI: 1.22 µM

## CCOC(=O)c1cn(C)nc1N/C(C)=C\C(=O)c1ccccc1
UO-31 renal
  TGI: > 100 µM
M14 melanoma
  TGI: > 100 µM
HL-60(TB) leukemia
  TGI: > 100 µM
SK-OV-3 ovarian
  TGI: > 100 µM
LOX IMVI melanoma
  TGI: > 100 µM
MALME-3M melanoma
  TGI: > 100 µM
COLO 205 colon
  TGI: > 100 µM
UACC-257 melanoma
  TGI: > 100 µM
OVCAR-8 ovarian
  TGI: > 100 µM

## COc1cccc(C2CC(=O)c3cccn32)c1 (stereo not drawn)
UO-31 renal
  TGI: > 100 µM
M14 melanoma
  TGI: > 100 µM
HL-60(TB) leukemia
  TGI: 96 µM
SK-OV-3 ovarian
  TGI: > 100 µM
A498 renal
  TGI: > 100 µM
LOX IMVI melanoma
  TGI: > 100 µM
COLO 205 colon
  TGI: > 100 µM
UACC-257 melanoma
  TGI: > 100 µM
OVCAR-8 ovarian
  TGI: > 100 µM

## C=C1CC(OC)(C(O)C(=O)N[C@H]2OCO[C@H]3C2O[C@H](C[C@H](O)COC)C(C)(C)C3OC)O[C@H](C)[C@@H]1C (stereo partly drawn)
UO-31 renal
  TGI: > 0.00772 µM
A498 renal
  TGI: > 0.00772 µM
COLO 205 colon
  TGI: > 0.00772 µM
UACC-257 melanoma
  TGI: > 0.00772 µM
OVCAR-8 ovarian
  TGI: > 0.00772 µM

## C=C1C(=O)O[C@H]2C/C(C=O)=C\[C@H]3O[C@H]3/C(COC(=O)C(C)C)=C/CC12 (stereo partly drawn)
UO-31 renal
  TGI: 18 µM
HL-60(TB) leukemia
  TGI: 5.54 µM
LOX IMVI melanoma
  TGI: 11.8 µM
MALME-3M melanoma
  TGI: 24.2 µM
COLO 205 colon
  TGI: 5.91 µM
UACC-257 melanoma
  TGI: 28.4 µM
OVCAR-8 ovarian
  TGI: 13.3 µM

## COC(=O)C1[C@H](C(=O)OC)C1(Br)CBr (stereo partly drawn)
UO-31 renal
  TGI: > 100 µM
M14 melanoma
  TGI: > 100 µM
HL-60(TB) leukemia
  TGI: > 100 µM
SK-OV-3 ovarian
  TGI: > 100 µM
A498 renal
  TGI: > 100 µM
LOX IMVI melanoma
  TGI: > 100 µM
COLO 205 colon
  TGI: > 100 µM
UACC-257 melanoma
  TGI: > 100 µM
OVCAR-8 ovarian
  TGI: > 100 µM

## O=C(NCCCCNCCCNC(=O)OCc1ccccc1)OCc1ccccc1
UO-31 renal
  TGI: 93.1 µM
M14 melanoma
  TGI: 40.1 µM
HL-60(TB) leukemia
  TGI: 60.4 µM
SK-OV-3 ovarian
  TGI: > 100 µM
A498 renal
  TGI: 36.8 µM
COLO 205 colon
  TGI: 33.8 µM
UACC-257 melanoma
  TGI: 41.3 µM
OVCAR-8 ovarian
  TGI: 67.1 µM

## Cc1ccc(S(=O)(=O)N2CCN(CCO)CCN(S(=O)(=O)c3ccc(C)cc3)CCN(CCO)CC2)cc1
UO-31 renal
  TGI: > 100 µM
M14 melanoma
  TGI: 31.5 µM
HL-60(TB) leukemia
  TGI: 37.3 µM
A498 renal
  TGI: 62.7 µM
LOX IMVI melanoma
  TGI: 28.4 µM
COLO 205 colon
  TGI: 33.2 µM
UACC-257 melanoma
  TGI: 25.1 µM
OVCAR-8 ovarian
  TGI: > 100 µM
